Measurements from the METLIN SMRT retention time set (Domingo-Almenara et al. 2019).

Test: gradient 5% acetonitrile 3 min, to 50% in 2 min, to 85% in 15 min, held 3 min, 100 µL/min
Conditions: column: Zorbax Extend-C18 2.1 x 50 mm; eluents: water / acetonitrile, 0.1% formic acid
Procedure, shortened: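 Data were gathered over 3 months by HPLC coupled to a quadrupole time-of-flight mass spectrometer, operated in positive and negative ionization mode. Mixtures of ~100 pure standards ran on a Zorbax Extend-C18 column (2.1 × 50 mm, 1.8 μm) at 100 μL/min, with water and acetonitrile each containing 0.1% formic acid and dead and dwell volumes of 40 μL and 900 μL. Retention time was read from adduct peaks picked by computer and checked manually.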

| SMILES | RP-LC retention time [s] |
| --- | --- |
| Cc1ccc(-c2nnc(Cc3nc(-c4ccc5c(c4)OCO5)no3)o2)cc1C | 1070 |
| CCN(CC)C(=O)c1ccc2c(c1)N(CC(=O)N1CCN(c3ncccn3)CC1)C(=O)CO2 | 666 |
| CC(C)NC(=O)N1CCC2(CC1)NCCc1c2[nH]c2ccccc12 | 618 |
| Cc1ccc(-c2nnc(-c3ccccc3)o2)cc1S(=O)(=O)N1CCCCCC1 | 1200 |
| O=C1CC(C(=O)N2CCCC2)CN1CCc1c[nH]c2ccc(Cl)cc12 (centres undefined) | 731 |
| O=C(c1ccc(-c2csc(C3CC3)n2)cc1)N1CCCCCC1 | 1070 |
| CCn1cnc2cc(CNC(=O)c3cc(C)cc(C)c3)ccc21 | 646 |
| COc1cccc(-c2cc3c(=O)n(Cc4nc(-c5ccc(F)c(Br)c5)no4)ccn3n2)c1 | 1090 |
| COC(=O)C1=CN(c2ccc(Cl)cc2)c2ccc(F)cc2S1(=O)=O | 894 |
| CSc1ccc(-c2noc(Cc3nnc(-c4ccc(C)c(C)c4)o3)n2)cc1 | 1190 |
| Cc1nn(-c2ccccc2)c2nc(N3CCCC(C(=O)Nc4cccc(Br)c4)C3)sc12 (centres undefined) | 1300 |
| Cn1c(=O)c(C(=O)NC2CC2)nc2cccnc21 | 613 |
| O=C(N[C@H]1C[C@@H]2C[C@H]1CN2C(=O)Cc1ccc(OC(F)(F)F)cc1)c1ccccc1 | 836 |
| Cc1ncsc1C1N(C2CCN(C(=O)C3CC3)CC2)C(=O)C12CCCC2 (centres undefined) | 696 |
| Cc1nc(C)c(C(=O)N2CCC(Oc3nc4c(C)ccc(C)c4s3)CC2)s1 | 1090 |
| CCOC(=O)C(C)NC(=O)N1CCN(c2nc3ccccc3n2CC)CC1 (centres undefined) | 609 |
| COc1ccc(-c2cn3ccn(-c4ccc(Br)cc4)c(=O)c3n2)cc1OC | 795 |
| O=C(Cn1ccnc1-c1ccnc(N2CCOCC2)c1)Nc1cccc(Br)c1 | 648 |
| CCOC(=O)c1cc(S(=O)(=O)N2CCCC2C(=O)Nc2cccc(F)c2)cn1C (centres undefined) | 938 |
| CC(C)(C)c1noc(-c2ccnc(-n3cnc(C(=O)NCC4CC4)c3)c2)n1 | 1110 |
| O=C(c1ccsc1)N1CC(Oc2ccc(-c3nc(-c4ccccc4)no3)cc2)C1 | 1120 |
| CCC(C(=O)NCCCN1CCN(CC)CC1)n1c2ccccc2c2cnn(C)c(=O)c21 (centres undefined) | 594 |
| CCn1c(=O)c(C)nc2cc(-c3noc(-c4sccc4C)n3)ccc21 | 1080 |

| SMILES | RP-LC retention time [s] |
| --- | --- |
| CC(=O)Nc1ccc(C(=O)N2CCC3(CC2)N=C(c2ccccc2)NO3)cc1 | 664 |
| O=C(NCc1ccccc1)c1cc(N2CCCC2)n2nccc2n1 | 951 |
| Cc1c(Cl)cccc1NC(=O)N1CCC(OC2CCN(S(C)(=O)=O)CC2)CC1 | 743 |
| CO[C@H]1C(=O)N(C2CCN(S(=O)(=O)C(C)C)CC2)[C@H]1c1ccncc1 | 569 |
| COC(=O)C1CCN(C(=O)C(=O)Nc2c3c(nn2-c2ccc(Cl)cc2)CSC3)CC1 | 671 |
| COc1cccc(CNC(=O)NC2CCN(c3cc(C)cc(C)c3)C2=O)c1 (centres undefined) | 840 |
| CCOc1ccc(NC(=O)c2c(O)c3cccnc3n(-c3ccc(F)cc3)c2=O)cc1 | 1280 |
| CCN1C(=O)c2cccnc2Sc2cc(C(=O)N3CCC(C)CC3)ccc21 | 798 |
| Cc1nn(C)c(C)c1CCC(=O)N1CCN(c2ncccn2)CC1 | 564 |
| Cc1ccc(-c2nnc(Cc3nc(-c4ccc(F)cc4)no3)o2)cc1C | 1120 |
| CCOC(=O)C1CCN(C(=O)c2sc(Nc3ccc(F)cn3)nc2C)CC1 | 771 |
| COC(=O)c1cc2ccsc2n1CC(=O)Nc1ccc(F)cc1F | 949 |
| CC(Cc1ccco1)NC(=O)c1ccc(N2CCCCC2)c(S(=O)(=O)N2CCCCC2)c1 (centres undefined) | 1190 |
| COc1ccc(-c2ccnn2-c2ccc(SCc3ccccc3F)nn2)cc1 | 1310 |
| CC(C)CNC(=O)/C=C\C(=O)O | 717 |
| Cc1cnc(NC(=O)c2ccc(N3CCCC3)nn2)s1 | 636 |
| CCC(=O)NCc1nc2c(n1CC)CN(S(=O)(=O)c1ccccc1F)CC2 | 561 |
| COc1ccc(NC(=O)Cn2cccc2-c2nnc(-c3ccccc3)o2)c(OC)c1 | 993 |
| Cc1ncc2c(n1)C[C@@H]1CC[C@H]2N1C(=O)c1ccnn1C | 584 |
| Cc1nc2cc(-c3noc(-c4cccc(Cl)c4)n3)ccc2n(C)c1=O | 1140 |
| O=C(c1ccc2ncnc(N3CCCC3)c2c1)N1CCN(c2ccccc2F)CC1 | 659 |
| COC(=O)c1ccc(NC(=O)N2CCC3(CC2)NC(=O)c2ccccc2O3)cc1 | 726 |
| Cc1cc2c(F)c(Oc3ncnn4cc(OC[C@@H](C)OC(=O)[C@H](C)N)c(C)c34)ccc2[nH]1 | 746 |

| SMILES | RP-LC retention time [s] |
| --- | --- |
| O=C(NC1CC1)[C@@H]1C[C@H](Oc2ccccc2)CN1C(=O)CCC1CCCC1 | 886 |
| CC(C)CNC(=O)CCc1nc2ccccc2n(CC(=O)NCCc2ccc(Cl)cc2)c1=O | 855 |
| O=C(Nc1cccc(Cl)c1)N1CCC(N2CCN(Cc3ccccc3)C(=O)C2=O)CC1 | 736 |
| O=C(O)C1CCCN(CCC=C(c2ccccc2)c2ccccc2)C1 (centres undefined) | 783 |
| O=S(=O)(NCc1cccs1)c1cc(-c2noc(C3CCCC3)n2)cs1 | 1110 |
| O=C(Cc1cccs1)Nc1ccc(-c2nnc3n2CCCC3)cc1 | 640 |
| CC(C)(N)c1ncc(-c2ccc(OC(F)(F)F)cc2)[nH]1 | 693 |
| COc1ccc(NC(=O)Nc2cccc(-c3ccc(N4CCOCC4)nn3)c2)cc1 | 658 |
| CC(C)(C)OC(=O)N1CCN(c2ncc(S(=O)(=O)c3ccc(Cl)cc3)c(N)n2)CC1 | 1060 |
| CCOC(=O)c1cc(S(=O)(=O)N2CCCC2C(=O)Nc2cccc3c2CCCC3)cn1C (centres undefined) | 1060 |
| C=CCN1C(=O)COc2ccc(-c3nc(NC(=O)CCC4CCCCC4)sc3C)cc21 | 1220 |
| Cc1csc(-c2cc(S(=O)(=O)NC3CCCCC3)cn2CC(=O)N2CCCCC2)n1 | 1010 |
| Cn1nccc1C(=O)NCc1ccc2c(c1)CCN2C(=O)c1ccccc1 | 759 |
| CCCn1ccc2sc(C)c(C(=O)NCc3cc(OC)ccc3OC)c2c1=O | 889 |
| CCc1ccc(-c2nc(-c3ccc4nnc(C)n4c3)no2)cc1 | 1080 |
| CCCn1c(=O)c2c(nc3n2CCN3c2ccc(OC)cc2)n(C)c1=O | 834 |
| CN1C(=O)Cc2cc(NC(=O)c3ccno3)ccc21 | 586 |
| CCc1c(C2CCN(C(=O)C3COc4ccccc4O3)CC2)noc1N (centres undefined) | 684 |
| Cn1c(=O)oc2cc(-c3noc(-c4cc(F)ccc4F)n3)ccc21 | 1010 |
| CN(C)S(=O)(=O)c1ccc(-c2nnc(C(=O)NC3CCN(Cc4ccccc4)CC3)o2)cc1 | 754 |
| Cc1cc(NC(=O)CCS(=O)(=O)c2ccc(F)cc2)n(-c2nc3ccccc3s2)n1 | 1030 |
| COc1ccc(Cl)cc1S(=O)(=O)N1CCCC(C(=O)Nc2ccccc2)C1 (centres undefined) | 967 |
| CCc1ccc(CNC(=O)c2cc3n(n2)CC(C)(C(=O)NC2CCCC2)N(C)C3=O)cc1 (centres undefined) | 812 |

| SMILES | RP-LC retention time [s] |
| --- | --- |
| COc1ccc(C(C)NC(=O)c2c(C)sc3ccn(CC(C)C)c(=O)c23)cc1 (centres undefined) | 962 |
| COc1ccc(CCC(=O)N2CCC[C@@H]2C(=O)NCCc2csc(C)n2)cc1 | 667 |
| Cc1cccc(NS(=O)(=O)c2cc3n(c2)CCCNC3=O)c1C | 658 |
| CCCNC(=O)C1CCN(c2ccc(SCC(=O)Nc3cc(C)ccc3OC)nn2)CC1 | 700 |
| Cc1cc(C)n2nc(SCC(=O)NCc3ccccc3)nc2n1 | 705 |
| O=C(NCC1CC1)c1cccc(N2CCNC(c3ccccc3)C2)n1 (centres undefined) | 619 |
| CCn1ncc(NC(=O)c2ccc(C)cc2)c(N2CCOCC2)c1=O | 816 |
| CCS(=O)(=O)Nc1ccc(-c2noc(COc3ccccc3)n2)cc1 | 923 |
| Cc1ccc(-n2c(=O)n(CC(=O)NCCN3CCN(C)CC3)c3cccnc32)cc1 | 589 |
| CCc1ccc(C2CC(=O)Nc3c(S(=O)(=O)c4ccccc4)csc32)cc1 (centres undefined) | 1060 |
| CN1C(=O)[C@H]2CN(Cc3ccc(Cl)cc3)C[C@H]2C1=O | 598 |
| Cc1ccccc1NS(=O)(=O)c1ccc(-c2c(C)noc2C)cc1 | 924 |
| COc1ccc(-c2nc(C)cc(C)c2CNS(=O)(=O)c2cccc(C#N)c2)cc1 | 640 |
| Cc1cccc(NC(=O)Nc2nccn(-c3ccc(Br)cc3)c2=O)c1 | 1050 |
| CCOc1ccccc1-c1noc(Cn2cnc3c(oc4ccccc43)c2=O)n1 | 914 |
| Cn1ccc2c(cc(C(=O)NCc3cccc(C(F)(F)F)c3)n2C)c1=O | 771 |
| CCn1cnc(S(=O)(=O)N2CCC(C(=O)NCc3ccc4c(c3)OCO4)CC2)c1 | 684 |
| CCc1cccc(NC(=O)c2cc3sccc3n2Cc2ccc(F)cc2)c1 | 1260 |
| CC(=O)Nc1ccc(S(=O)(=O)Nc2ccc3c(c2)CCC(=O)N3C)cc1 | 604 |
| Cc1ccc(CN2C(=O)COC[C@H]2C(=O)Nc2ccc3c(c2)OCCO3)cc1 | 780 |
